Experimental findings from patent publication US20240115557A1, “INHIBITORS OF RNA-GUIDED NUCLEASES AND USES THEREOF” (The Brigham and Women's Hospital, Inc., priority 2022, published 2024) are described below.

Broadly, the EC50 is the concentration needed to bring the measured effect to its halfway point. A lower EC50 goes with higher potency in that assay.

One series concerns the target SpCas9 (Streptococcus pyogenes serotype M1, UniProt Q99ZW2). Description: HiBiT knock-in assay, SpCas9, HEK293T cells. The class given is cell-based. The source says: Primary and secondary screening. The primary screen assayed a selection of unique chemical scaffolds derived from commercially available compounds and known bioactive molecular libraries (Table 7). Auto-fluorescent compounds were removed by a counter screen. Overall, the CAA was used to assay 122,409 small molecules with over 2,500 unique chemical scaffolds (FIG. 64F, Table 7). Of these compounds, 547 were selected as hits (Z score >3 in both replicates) for testing in orthogonal cell-based secondary assays. Hits were tested in duplicate in an eGFP disruption assay, wherein U2OS.eGFP.PEST cells^33 transfected with SpCas9 plasmid and eGFP-targeting gRNA plasmid were incubated with 20 μM of the compounds. In this assay, any compound that inhibited SpCas9 would rescue the loss of eGFP fluorescence. Here, toxic and auto-fluorescent compounds with a high GFP signal in cells were removed as false positives. […] Next, Applicants tested the 15 compounds in a luminescence-based gain-of-signal HiBiT knock-in assay, which involves SpCas9-mediated homology-directed tagging of GAPDH with a short peptide that luminesces upon complementation with a subunit derived from nanoluciferase.^34 Complementarily, the eGFP-disruption assay is fluorescence-based and involves error-prone DNA repair. As a counter-screen to remove false positives caused by cell death (viability <80%), the cell viability was measured after incubation.
Approximately 400,000 HEK293T cells were nucleofected with 400 ng of SpCas9 plasmid, 40 ng of GAPDH-targeting gRNA plasmid, and 40 pmol of single-strand oligodeoxynucleotide (ssODN) using SF Cell Line 4D-Nucleofector X Kit (Lonza) following the pulse program of DS-150. For RNP-based genome editing, 10 pmol of Cas9 and 12 pmol of gRNA were mixed and incubated for 5 min. Then, 20 pmol of ssODN was added. Cells were nucleofected with the resulting mixture using the same pulse program. Cells were then transferred to a 96-well plate at the density of 35,000 cells per well, and incubated with indicated amount of compounds for 24 h. Cell viability was measured using PrestoBlue reagent (Thermo) with a SpectraMax M5 (Molecular Devices) at the excitation and emission wavelength of 544 nm and 590 nm, respectively. Next, luminescence measurement was performed using the Nano-Glo HiBiT Lytic Detection System (Promega) according to the manufacturer's protocol with an EnVision Multilabel Plate Reader (PerkinElmer) at the integration time of 0.5 s per well. The resulting luminescence signals were normalized based on the cell viability.^34
(In general: The HiBiT peptide binds its large partner to form an active luciferase.)

The next series has as its system HEK293T cells. Kind of series: CellTiter-Glo cell viability assay, HEK293T. The format is cell-based, human. The conditions noted are these: 24 h. As for the experimental part: (§1) HEK293T cells or U2OS.eGFP.PEST cells were plated in a 96-well plate at the density of 30,000 cells per well or 20,000 cells per well, respectively. The next day, cells were treated with indicated amount of compounds for 24 h. Then, cellular ATP levels were measured using CellTiter-Glo Luminescent Cell Viability Assay (Promega) with an EnVision Multilabel Plate Reader (PerkinElmer) at the integration time of 0.5 s per well.
A general note: ATP-based viability assays read luminescence as a measure of living cells.

The test system of the next series is U2OS.eGFP.PEST cells. Kind of series: CellTiter-Glo cell viability assay, U2OS.eGFP.PEST. The format is cell-based, human. The settings on record: 24 h. As for the experimental part:
as §1

The subject of another series is SpCas9 expression. Kind of series: Immunoblotting of SpCas9 expression. The format is cell-based. The settings on record: HEK293T and U2OS.eGFP.PEST, 24 h. As for the experimental part:
Approximately 500,000 U20S.eGFP.PEST cells were nucleofected as described above with 500 ng of SpCas9 plasmid. Then, cells were plated in a 12-well plate with indicated amount of compound, and incubated for 24 h. HEK293T cells were transfected with 500 ng SpCas9 plasmid as described above, and incubated with the compound for 24 h in a 24-well plate. Cells were harvested and lysed by RIPA buffer containing Protease Inhibitor Cocktail (Roche). Lysate was cleared by centrifugation at 20,000 g in 4° C., and the supernatant was taken to measure the protein concentration using BCA assay. Approximately […] of the total protein was used for immunoblotting. Rabbit anti-SpCas9 (Abcam #89380, 1:1,000 dilution) and mouse anti-a-tubulin (CST #3873, 1:2,000 dilution) were used as primary antibodies. IRDye 680RD Donkey anti-Rabbit IgG (LI-COR #925-68073, 1:10,000 dilution) and IRDye 800CW Donkey anti-Mouse IgG (LI-COR #925-32212, 1:10,000 dilution) were used as secondary antibodies.
For orientation: Immunoblotting shows a protein as a band on a membrane.

Series [1] addresses SpCas9:gRNA complex and DNA (Streptococcus pyogenes serotype M1, UniProt Q99ZW2). Description: Fluorescence polarization SpCas9:PAM DNA interaction assay. The format is binding. The source says:
The fluorescence Polarization-based Assay may monitor the change in the fluorescence polarization of the fluorophore-labelled PAM-rich target DNA (e.g., a 12PAM-DNA) upon binding to [Cas9:guideRNA] complex.
Fluorescence polarization is a useful technique to monitor the interaction between two molecules, including for example, Cas9-gRNA (ribonucleoprotein) complex and target DNA (e.g., 12PAM).
Fluorescence polarization may be used to measure the binding constants and kinetics of reactions that cause a change in the rotational time of the molecules. The technique is based on the change in the tumbling rate or mass after complexation. […] The degree of binding is calculated by using the difference in anisotropy of the partially bound, free and fully bound (large excess of protein) states measured by titrating the two binding partners. […]
Development of cumulative activity assay (CAA) for SpCas9. Applicants previously reported an assay that uses fluorescence polarization (FP) to monitor the binding between a fluorophore-labeled poly-PAM DNA oligonucleotide and SpCas9 charged with a non-targeting gRNA.^17 This assay permitted screening for small molecules that interfered with the early steps of the SpCas9 catalytic mechanism, namely, binding of SpCas9 and the relatively low-affinity NGG PAM DNA sequence. […]

Each structure is given as a SMILES string.

SpCas9, sequence (Q99ZW2 whole entry): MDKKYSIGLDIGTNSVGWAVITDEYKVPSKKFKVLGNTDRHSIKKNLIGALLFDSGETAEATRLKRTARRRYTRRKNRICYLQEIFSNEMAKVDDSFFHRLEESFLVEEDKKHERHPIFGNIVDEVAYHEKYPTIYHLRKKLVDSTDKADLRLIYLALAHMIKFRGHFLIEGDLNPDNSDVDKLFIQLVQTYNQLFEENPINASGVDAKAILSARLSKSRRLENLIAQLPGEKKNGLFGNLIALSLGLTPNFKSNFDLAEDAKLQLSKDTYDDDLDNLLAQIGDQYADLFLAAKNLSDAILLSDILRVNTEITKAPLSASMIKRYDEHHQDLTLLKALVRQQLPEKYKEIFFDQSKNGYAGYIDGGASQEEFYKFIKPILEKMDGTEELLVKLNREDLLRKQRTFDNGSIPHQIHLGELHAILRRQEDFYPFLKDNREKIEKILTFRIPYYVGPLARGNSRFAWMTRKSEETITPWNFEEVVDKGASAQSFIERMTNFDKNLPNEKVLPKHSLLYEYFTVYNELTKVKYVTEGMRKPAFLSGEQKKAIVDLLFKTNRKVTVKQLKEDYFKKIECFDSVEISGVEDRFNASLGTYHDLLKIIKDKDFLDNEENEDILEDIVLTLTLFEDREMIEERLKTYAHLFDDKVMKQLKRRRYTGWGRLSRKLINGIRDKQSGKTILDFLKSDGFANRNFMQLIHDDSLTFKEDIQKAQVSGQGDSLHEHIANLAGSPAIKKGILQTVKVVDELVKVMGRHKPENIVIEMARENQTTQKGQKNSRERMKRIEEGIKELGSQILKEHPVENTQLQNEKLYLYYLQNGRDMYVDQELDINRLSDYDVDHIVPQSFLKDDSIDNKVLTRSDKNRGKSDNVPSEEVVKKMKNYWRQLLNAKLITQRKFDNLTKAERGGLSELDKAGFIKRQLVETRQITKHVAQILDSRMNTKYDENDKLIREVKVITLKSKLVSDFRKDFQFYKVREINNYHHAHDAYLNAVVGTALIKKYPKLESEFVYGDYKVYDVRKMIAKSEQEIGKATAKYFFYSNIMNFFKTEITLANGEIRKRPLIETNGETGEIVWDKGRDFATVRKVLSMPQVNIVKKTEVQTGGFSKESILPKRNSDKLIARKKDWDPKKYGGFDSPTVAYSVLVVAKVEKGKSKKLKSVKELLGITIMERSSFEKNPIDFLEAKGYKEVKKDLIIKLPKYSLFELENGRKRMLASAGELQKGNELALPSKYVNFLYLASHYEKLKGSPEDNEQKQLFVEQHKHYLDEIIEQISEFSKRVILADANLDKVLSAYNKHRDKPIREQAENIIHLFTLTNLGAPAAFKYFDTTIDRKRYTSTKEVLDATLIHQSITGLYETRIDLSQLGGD
SpCas9:gRNA complex and DNA, sequence (Q99ZW2 whole entry, one chain of several): as the sequence (Q99ZW2 whole entry) above

Take `O=C(CCS(=O)(=O)c1ccc(Cl)cc1)Nc1nc(-c2ccncc2)cs1` [BRD7586]: the EC50 came to 5.04 µM on SpCas9 (EC50 in HiBit knockin assay, HEK293T, SpCas9 plasmid, sgRNA plasmid and ssODN, 0.06 uM to 20 uM, 24 h (FIG. 44D)); 5.7 ± 0.36 µM on SpCas9 (EC50 in the HiBiT knock-in assay, from three independent experiments). For the same compound, the Cytotoxicity entry in the series with HEK293T cells and in the series with U2OS.eGFP.PEST cells was “without introducing cytotoxicity” throughout. Also, the “Effect on SpCas9 expression” value with SpCas9 expression was “without altering its expression”. In addition, in series [1], the “Inhibition of binding between SpCas9:gRNA complex and DNA” value is “does not inhibit the binding”.
